In BindingDB's records for patent US117808 (H. Lundbeck, 2023):
Where “and” joins values, the source holds several entries; their conditions need not be identical. Equal values may be shown once.

Tests used:
[1] = molecular target: Leucine-rich repeat serine/threonine-protein kinase 2 [G2019S] (Homo sapiens, UniProt Q5S007, G2019S); assay: LRRK2 Wild-Type and G2019S Kinase Activity Assay
Protocol: (§1) The LRRK2 kinase was obtained from Invitrogen (Life Technologies Corporation) and comprises residue 970 to 2527 of the full length human wild-type LRRK2 kinase, or a similar sequence with the G2019S mutation. As discussed above, this mutation increases the kinase activity relative to the wild type. The kinase reactions were performed in a 20 uL volume in 384-well plates. The kinase reaction buffer consisted of 50 mM Tris pH 8.5, 0.01% BRIJ-35, 10 mM MgCl2, 1 mM EGTA, and 2 mM DTT.In the assay, 1 nM LRRK2 WT or 250 pM LRRK2 G2019S kinase in kinase reaction buffer was incubated with the test compound (typically at 0 to 30 uM) for 30 minutes before the kinase reaction was initiated by addition of 1.3 mM ATP and 0.4 uM fluorescein-LRRKtide. The reaction mixture (20 ul total volume) was incubated for 3.5 h (for LRRK2 WT) and 3 h (for LRRK2 G2019S) at 30 C., before the reaction was terminated by addition of 10 mM EDTA and 1 nM terbium-labelled anti-phospho-LRRKtide antibody (final volume […]). The mixture was further incubated for 30 minutes at RT. TR-FRET was measured by excitation of the terbium-donor with 340 nm light and subsequent (delay time 100 us) measurement of terbium and fluorescein emission at 495 nm and 520 nm, respectively, over a time window of 1000 us. The measurement was repeated 30 times for fluorescein and 30 times for terbium emission with a 1000 us time window between repeats. TR-FRET measurements were performed on a Biotek Synergy plate. The TR-FRET signal was calculated as the emission-ratio at 520 nm over 495 nm.

[2] = molecular target: Leucine-rich repeat serine/threonine-protein kinase 2 (Homo sapiens, UniProt Q5S007); assay: LRRK2 Wild-Type and G2019S Kinase Activity Assay
Leucine-rich repeat serine/threonine-protein kinase 2, sequence (Q5S007 whole entry): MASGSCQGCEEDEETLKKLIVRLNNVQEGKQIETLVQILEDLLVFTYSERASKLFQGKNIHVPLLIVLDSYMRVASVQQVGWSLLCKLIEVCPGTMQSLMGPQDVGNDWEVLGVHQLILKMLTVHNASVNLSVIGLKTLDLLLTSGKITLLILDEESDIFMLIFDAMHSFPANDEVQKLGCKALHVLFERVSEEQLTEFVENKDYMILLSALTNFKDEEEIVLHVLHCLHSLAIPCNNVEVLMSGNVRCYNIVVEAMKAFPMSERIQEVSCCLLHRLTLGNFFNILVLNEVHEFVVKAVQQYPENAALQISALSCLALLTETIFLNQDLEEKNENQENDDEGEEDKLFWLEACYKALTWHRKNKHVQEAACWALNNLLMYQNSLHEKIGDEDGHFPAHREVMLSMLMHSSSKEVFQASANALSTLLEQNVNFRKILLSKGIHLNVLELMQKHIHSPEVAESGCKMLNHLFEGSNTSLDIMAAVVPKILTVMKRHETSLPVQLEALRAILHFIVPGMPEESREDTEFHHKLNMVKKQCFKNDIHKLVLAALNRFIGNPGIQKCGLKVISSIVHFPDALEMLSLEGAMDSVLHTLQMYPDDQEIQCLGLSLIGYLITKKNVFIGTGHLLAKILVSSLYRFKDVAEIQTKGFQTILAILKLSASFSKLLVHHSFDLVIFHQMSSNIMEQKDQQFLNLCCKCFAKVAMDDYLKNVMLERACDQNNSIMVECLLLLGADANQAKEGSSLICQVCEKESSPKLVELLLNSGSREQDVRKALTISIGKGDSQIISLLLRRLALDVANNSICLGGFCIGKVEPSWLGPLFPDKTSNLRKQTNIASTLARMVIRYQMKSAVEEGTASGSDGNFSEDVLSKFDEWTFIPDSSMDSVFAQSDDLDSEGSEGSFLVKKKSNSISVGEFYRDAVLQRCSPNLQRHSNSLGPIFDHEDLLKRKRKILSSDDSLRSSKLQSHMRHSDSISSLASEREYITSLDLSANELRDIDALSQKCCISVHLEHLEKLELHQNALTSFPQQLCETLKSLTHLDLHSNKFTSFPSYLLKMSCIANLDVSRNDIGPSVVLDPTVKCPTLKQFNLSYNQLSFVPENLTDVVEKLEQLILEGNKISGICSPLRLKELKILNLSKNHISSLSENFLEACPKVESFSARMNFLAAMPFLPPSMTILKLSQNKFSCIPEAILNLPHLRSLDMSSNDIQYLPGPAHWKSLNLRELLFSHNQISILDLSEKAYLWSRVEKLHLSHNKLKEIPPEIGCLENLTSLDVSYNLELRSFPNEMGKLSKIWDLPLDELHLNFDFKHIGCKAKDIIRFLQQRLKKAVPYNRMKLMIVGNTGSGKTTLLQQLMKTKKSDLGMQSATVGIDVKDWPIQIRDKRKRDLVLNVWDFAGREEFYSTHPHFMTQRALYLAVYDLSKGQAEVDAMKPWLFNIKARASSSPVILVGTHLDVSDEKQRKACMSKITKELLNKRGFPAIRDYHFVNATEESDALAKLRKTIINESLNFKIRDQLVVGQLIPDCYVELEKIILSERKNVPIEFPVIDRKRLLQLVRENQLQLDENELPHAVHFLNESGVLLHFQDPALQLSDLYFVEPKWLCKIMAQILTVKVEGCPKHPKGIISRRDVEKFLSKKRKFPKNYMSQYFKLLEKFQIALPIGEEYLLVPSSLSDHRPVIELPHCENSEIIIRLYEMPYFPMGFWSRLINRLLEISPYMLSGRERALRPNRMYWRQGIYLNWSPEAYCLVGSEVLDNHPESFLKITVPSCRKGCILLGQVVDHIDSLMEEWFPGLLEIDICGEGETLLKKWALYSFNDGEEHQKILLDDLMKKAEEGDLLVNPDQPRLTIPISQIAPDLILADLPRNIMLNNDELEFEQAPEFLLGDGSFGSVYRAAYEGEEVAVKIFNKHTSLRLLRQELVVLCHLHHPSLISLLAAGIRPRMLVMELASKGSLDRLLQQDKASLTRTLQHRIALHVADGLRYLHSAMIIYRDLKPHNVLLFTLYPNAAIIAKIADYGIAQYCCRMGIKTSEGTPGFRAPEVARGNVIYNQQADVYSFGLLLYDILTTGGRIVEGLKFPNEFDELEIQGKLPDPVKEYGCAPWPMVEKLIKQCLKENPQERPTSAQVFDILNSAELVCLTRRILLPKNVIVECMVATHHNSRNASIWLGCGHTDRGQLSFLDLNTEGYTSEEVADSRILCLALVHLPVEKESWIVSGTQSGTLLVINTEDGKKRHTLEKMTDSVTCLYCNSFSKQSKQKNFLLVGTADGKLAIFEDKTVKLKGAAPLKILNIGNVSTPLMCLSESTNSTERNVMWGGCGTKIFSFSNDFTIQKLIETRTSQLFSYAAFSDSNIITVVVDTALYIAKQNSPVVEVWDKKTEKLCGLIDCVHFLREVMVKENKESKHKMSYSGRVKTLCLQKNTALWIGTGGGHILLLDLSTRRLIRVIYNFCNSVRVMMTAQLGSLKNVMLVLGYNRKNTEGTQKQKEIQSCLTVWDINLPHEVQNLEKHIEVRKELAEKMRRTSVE
Protocol: as §1

Leucine-rich repeat serine/threonine-protein kinase 2 [G2019S], sequence (Q5S007 whole entry G2019S): as the sequence (Q5S007 whole entry) above, with G2019S counted along it

SMILES	IC50 [1]	IC50 [2]
CCc1c2c(nn1[C@@H]1CCOCC1F)OCCCn1nc(Cl)c3cnc(nc31)N2 (some centres undefined) [US11780851, Example 55]	1.5 nM	5.6 nM
Cc1c2c(nn1C1C3COCC31)OCCCn1nc(Cl)c3cnc(nc31)N2 (centres undefined) [US11780851, Example 38]	11 nM	28 nM
Cc1c2c(nn1[C@@H]1CCO[C@@H](C)C1)OCCCn1nc(Cl)c3cnc(nc31)N2 [US11780851, Example 19]	3.9 nM	13 nM
Cc1c2c(nn1[C@@H]1CCOC[C@H]1C)OCCCn1nc(Cl)c3cnc(nc31)N2 [US11780851, Example 22]	3.5 nM	10 nM
Cc1c2c(nn1CC1(C)COC1)OCCCn1nc(Cl)c3cnc(nc31)N2 [US11780851, Example 12]	12 nM	32 nM
CO[C@H]1CC[C@H](n2nc3c(c2Br)Nc2ncc4c(Cl)nn(c4n2)CCCO3)CC1 [US11780851, Example 50]	5.3 nM	10 nM
Cc1c2c(nn1C1CC3CCC(C1)O3)OCCCn1nc(Cl)c3cnc(nc31)N2 (centres undefined) [US11780851, Example 44]	4.3 nM	13 nM
Cc1c2c(nn1[C@@H]1CCO[C@H](C)C1)OCCCn1nc(Cl)c3cnc(nc31)N2 [US11780851, Example 52]	10 nM	19 nM
Cc1c([N+](=O)[O-])c(OCCCn2nc(Cl)c3cnc(Cl)nc32)nn1C1CCOCC1 [US11780851, Example 15]	–	9.6 nM and 6.8 nM
Cc1c2c(nn1[C@H]1CCOC[C@@H]1F)OCCCn1nc(Cl)c3cnc(nc31)N2 [US11780851, Example 31]	2.4 nM	5.6 nM
Cc1c2c(nn1[C@H]1CCCOC1)OCCCn1nc(Cl)c3cnc(nc31)N2 (single isomer, unassigned) [US11780851, Example 60]	9 nM	25 nM
Cc1c2c(nn1C1CC1(F)F)OCCCn1nc(Cl)c3cnc(nc31)N2 (centres undefined) [US11780851, Example 39]	7.8 nM	19 nM
Cc1c2c(nn1[C@H]1CCO[C@@H](C)C1)OCCCn1nc(Cl)c3cnc(nc31)N2 [US11780851, Example 51]	3.6 nM	11 nM
CCc1c2c(nn1[C@H]1CCOCC1F)OCCCn1nc(Cl)c3cnc(nc31)N2 (some centres undefined) [US11780851, Example 56]	2 nM	4.9 nM
Cc1c2c(nn1C1CCCCOC1)OCCCn1nc(Cl)c3cnc(nc31)N2 (centres undefined) [US11780851, Example 30]	4 nM	12 nM

Results, then the molecule that gave them:

IC50 [1]	IC50 [2]	SMILES
2.2 nM	8 nM	Cc1c2c(nn1C1CCOCC1)OCCCn1nc(Br)c3cnc(nc31)N2 [US11780851, Example 6]
7.2 nM	23 nM	Cc1c2c(nn1C1(C(N)=O)CC1)OCCCn1nc(Cl)c3cnc(nc31)N2 [US11780851, Example 36]
6.2 nM	17 nM	Cc1c2c(nn1[C@@H]1CCCOCC1)OCCCn1nc(Cl)c3cnc(nc31)N2 [US11780851, Example 59]
3.7 nM	10 nM	Cc1c2c(nn1[C@H]1CCOC[C@H]1C)OCCCn1nc(Cl)c3cnc(nc31)N2 [US11780851, Example 21]
7.3 nM and 4.3 nM	25 nM and 14 nM	Cc1c2c(nn1[C@@H]1CCCCOC1)OCCCn1nc(Cl)c3cnc(nc31)N2 [US11780851, Example 29]
4 nM	11 nM	F[C@H]1COCC[C@@H]1n1nc2c(c1Br)Nc1ncc3c(Cl)nn(c3n1)CCCO2 [US11780851, Example 63]
5.9 nM	18 nM	Cc1c2c(nn1C13CC(C(N)=O)(C1)C3)OCCCn1nc(Cl)c3cnc(nc31)N2 [US11780851, Example 33]
20 nM	44 nM	Cc1c2c(nn1[C@H]1CCOC[C@@H]1C)OCCCn1nc(Cl)c3cnc(nc31)N2 [US11780851, Example 23]
12 nM	28 nM	Cc1c2c(nn1[C@H]1CC1(F)F)OCCCn1nc(Cl)c3cnc(nc31)N2 [US11780851, Example 40]
2.2 nM	9.2 nM	Cc1c2c(nn1[C@@H]1CCCOC1)OCCCn1nc(Cl)c3cnc(nc31)N2 [US11780851, Example 61]
18 nM	90 nM	Cc1c2c(nn1C1CCOC[C@]1(C)F)OCCCn1nc(Cl)c3cnc(nc31)N2 (some centres undefined) [US11780851, Example 48]
6.4 nM	17 nM	Cc1c([N+](=O)[O-])c(OCCCn2nc(Cl)c3cnc(Cl)nc32)nn1[C@H]1C[C@@H](C)O[C@@H](C)C1 [US11780851, Example 41]
5.3 nM	17 nM	Cc1c2c(nn1[C@@H]1CCOC(C)(C)C1)OCCCn1nc(Cl)c3cnc(nc31)N2 [US11780851, Example 43]
5 nM	11 nM	Clc1nn2c3nc(ncc13)Nc1c(nn([C@H]3CCOC4(CC4)C3)c1Br)OCCC2 [US11780851, Example 64]
5.9 nM	17 nM	F[C@@H]1COCC[C@H]1n1nc2c(c1Br)Nc1ncc3c(Cl)nn(c3n1)CCCO2 [US11780851, Example 62]
0.88 nM	2.6 nM	Cc1c2c(nn1[C@H]1CCOC3(CC3)C1)OCCCn1nc(Cl)c3cnc(nc31)N2 [US11780851, Example 54]
3.1 nM	13 nM	Cc1c2c(nn1C1CCOC[C@@]1(C)F)OCCCn1nc(Cl)c3cnc(nc31)N2 (some centres undefined) [US11780851, Example 47]
6.1 nM	15 nM	Cc1c2c(nn1[C@@H]1CCOC[C@@H]1F)OCCCn1nc(Cl)c3cnc(nc31)N2 [US11780851, Example 32]
1.7 nM	4.8 nM	Clc1nn2c3nc(ncc13)Nc1c(nn([C@@H]3CCOC4(CC4)C3)c1Br)OCCC2 [US11780851, Example 65]
2.4 nM	9.8 nM	Cc1c2c(nn1C1CCOCC1)OCCCn1nc(Cl)c3cnc(nc31)N2 [US11780851, Example 20]
